Data taken from US5840893A, “Compounds for treating infectious diseases” (priority 1996, dated 1998).
Entries after “also recorded” stand apart in the source; their conditions may differ.

Legend:
HIV-1ADA = assay: RT activity in supernatant of HIV-1ADA-infected monocytes; assay type: cell-based, HIV-1ADA in primary human monocytes
Method: The cultures were treated with none or between 10^-12 and 10^-6M Compound No. 2 and, simultaneously with the beginning of treatment, the cells were exposed to the monocyte-tropic strain HIV-1ADA about 0.01 TCID50 /cell (1 ng p24/10^6 cells) for 2 hours. Samples were withdrawn at days 3, 6, 10, 14 and 17 after infection and assayed for reverse transcription activity.
FIGS. 2B and 2C show the effects of various concentrations of Compound No. 2 on the production of HIV-1 in monocyte cultures not supplemented with M-CSF. In these studies MOI, as determined by concentration of p24 antigen was; FIG. 2B (8 ng/10^6 cells) and FIG. 2C (0.8 ng/10^6 cells).
Primary human monocytes were obtained from peripheral blood by Ficoll-Hypaque centrifugation and adherence to plastic as described previously. Gartner S. P., et al., 1986, Science 233:215. Briefly, after Ficoll-Hypaque (Pharmacia) separation, PBMCs were washed 4 times with DMEM (the last wash was done at 800 rpm to remove platelets) and resuspended in monocyte culture medium [DMEM supplemented with 1 mM glutamine, 10% heat-inactivated human serum, 1% penicillin+streptomycin mixture (Sigma)] at a density of 6×10^6 cells/ml. Cells were seeded in 24-well plates (1 ml per well) and incubated for 2 h at 37° C., 5% CO2. Following incubation, cells were washed 3 times with DMEM to remove non-adherent cells and incubation was continued in monocyte culture medium supplemented with 250 U/ml human M-CSF (Sigma). Cells were allowed to mature for 7 days prior to infection with the monocyte-tropic strain, HIV-1ADA. Nuovo, G. J., et al., 1992, Diagn. Mol. Pathol. 1:98. Two hours after infection, cells were washed with medium and cultured in RPMI supplemented with 10% human serum. […]
Macrophage-tropic strain HIV-1ADA was amplified in primary human monocytes and concentrated to produce stock with TCID50 of about 10^5 /ml. The concentration of HIV-1 was determined by immunoassay of viral p24, concentration; using a conversion factor of […].
For the reverse transcriptase (RT) assay, 10 μl of culture supernatant was added to 40 μl of reaction mixture (final composition was 50 mM Tris-HCl, pH 7.8; 20 mM KCl; 5 mM MgCl2; 1 mM DTT; 0.1% Triton X-100; 0.2 OD/ml polyA; 0.2 OD/ml oligo(dT)12-18; and 40 μCi/ml ^3 H-dTTP (76 Ci/mmol, DuPont) and incubated 2 hr at 37° C. 5 μl of the reaction mixture was then spotted onto the DE 81 (Whatman) paper. Paper was air dried and washed 5 times with 5% Na2 HPO4, followed by rinsing with distilled water. After air drying, paper was put on a Flexi Filter plate (Packard), covered with scintillation fluid and counted in a Top Count Microplate Counter (Packard). Results are expressed as counts per minute in 1 ml of supernatant (cpm/ml).

monocyte cultures = assay: Cytotoxicity in monocyte cultures (LDH release, trypan blue exclusion); assay type: cell-based, human; settings: up to 10 μM; LDH release and trypan blue exclusion
[1] = tested on: nuclear importation of HIV-1 preintegration complexes; assay: Nuclear importation of HIV-1 preintegration complexes (2-LTR circle PCR) in primary human monocytes; assay type: cell-based, HIV-1ADA in primary human monocytes; settings: Monocyte, 100 nM, 48 and 96 hours post infection
From the text: The effects of Compound No. 2 on the nuclear importation of HIV-1 preintegration complexes can be directly measured by detecting the presence of circularized duplex HIV-1 genomic DNA. These duplex circles can be readily detected by PCR amplification using primers which span the junction of the circularized HIV-1 genome. Bukrinsky, M. I., et al., 1992, Proc.Natl.Acad.Sci. 89:6580-84.
Briefly, the efficiency of nuclear translocation was estimated by the ratio between the 2-LTR- and pol-specific PCR products, which reflects the portion of 2-LTR circle DNA molecules as a fraction of the entire pool of intracellular HIV-1 DNA. Viral 2-LTR circle DNA is formed exclusively within the nucleus of infected cells and thus is a convenient marker of successful nuclear translocation. […]
Total DNA was extracted from HIV-1-infected cells using the IsoQuick extraction kit (Microprobe Corp., Garden Grove, Calif.). DNA was then analyzed by PCR using primer pairs that amplify the following sequences: a fragment of HIV-1 (LTR/gag) that is the last one to be synthesized during reverse transcription and therefore represents the pool of full-length viral DNA molecules; a fragment of polymerase gene (pol); a 2-LTR junction region found only in HIV-1 2-LTR circle DNA molecules; or a fragment of the cellular a-tubulin gene. […]

## CC(=O)c1cc(Nc2cc(C)[n+](C)c(N)n2)cc(C(C)=O)c1.[I-] [Compound No. 2, 2-amino-4-(3,5-diacetylphenyl)amino-1,6-dimethylpyrimidinium iodide]
HIV-1ADA; Homo sapiens, Monocyte, FIG. 2A, M-CSF, 1 ng p24/10^6 cells
  IC50: 0.1 to 1 nM
HIV-1ADA; Homo sapiens, Monocyte, FIG. 2B, without M-CSF, 8 ng p24/10^6 cells
  IC50: ~10 nM
HIV-1ADA; Homo sapiens, Monocyte, FIG. 2C, without M-CSF, 0.8 ng p24/10^6 cells
  IC50: < 1 nM
HIV-1ADA; Human immunodeficiency virus 1, Monocyte, FIG. 2, HIV-1 replication in monocytes, estimated
  IC50: 0.1 to 1 nM
Monocyte cultures
  cytotoxic effect: without toxic effects; also recorded: no cytotoxic effect was observed
[1]
  inhibition at 0.1 µM: > 90%
[1]; relative to drug free control, read-out: Translocation Index
  activity at 0.1 µM: < 10%
